The values below come from ChEMBL document CHEMBL3832555, “DailyMed|setid=f0492050-a966-41be-80b5-a58da7ba2bcf | PERINDOPRIL ERBUMINE-perindopril erbumine tablet|Lannett Company, Inc”.

The data set has as its system Homo sapiens. The experiment in a line: Evaluation of pharmacokinetic parameters for PERINDOPRIL and its active metabolite, PERINDOPRILAT,following single oral administration of PERINDOPRIL ERBUMINE tablets. Type of data set: ADME, organism-based. The following applies: in vivo, dosed compound id 11, dosed compound name PERINDOPRIL ERBUMINE, tissue Plasma.

As a reminder, the Tmax is the time from dosing to the highest level. Turning to `CC(C)(C)N.CCC[C@H](N[C@@H](C)C(=O)N1[C@H](C(=O)O)C[C@@H]2CCCC[C@@H]21)C(=O)OCC` [PERINDOPRIL ERBUMINE], the F was 75%, the Protein binding came to 60%, the Tmax is 1 h and the t1/2-elimination is 0.8 to 1 h.

For `CCC[C@H](N[C@@H](C)C(=O)N1[C@H](C(=O)O)C[C@@H]2CCCC[C@@H]21)C(=O)O` [PERINDOPRILAT], the F was determined as 25%, the Protein binding is 10 to 20%, the Tmax lay in the range of 3 to 7 h and the t1/2 was 3 to 10 h. Also, the t1/2-elimination was 30 to 120 h.
